In BindingDB's records for doi:10.7270/Q2QF8R9S (Vanderbilt Screening Center For Gpcrs, Ion Channels and …, 2010):
pEC50: −log10 of the molar value.

biological target: T1, Muscarinic acetylcholine receptor M1 (Rattus norvegicus, UniProt P08482); assay: structure-activity potentiation of ACh at M1 – cell-based, calcium mobilization, CHO-K1, SAR follow-up (AID 2651); details: not given
T1 sequence (P08482 whole entry): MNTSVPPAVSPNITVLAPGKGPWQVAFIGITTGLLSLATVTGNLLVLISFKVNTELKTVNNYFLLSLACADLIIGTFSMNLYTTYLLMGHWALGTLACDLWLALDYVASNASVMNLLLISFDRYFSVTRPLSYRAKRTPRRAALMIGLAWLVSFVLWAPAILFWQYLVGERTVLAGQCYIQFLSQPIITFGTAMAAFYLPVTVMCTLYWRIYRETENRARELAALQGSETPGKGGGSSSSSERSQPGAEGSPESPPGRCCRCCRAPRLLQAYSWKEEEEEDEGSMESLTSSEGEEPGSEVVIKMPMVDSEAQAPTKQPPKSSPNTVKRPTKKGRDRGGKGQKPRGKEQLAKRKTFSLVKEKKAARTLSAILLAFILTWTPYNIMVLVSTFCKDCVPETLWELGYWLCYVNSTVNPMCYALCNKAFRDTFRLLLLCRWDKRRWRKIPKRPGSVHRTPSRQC

Row | SMILES | pEC50
1 | Cc1cc(NC(=O)CS(=O)(=O)c2cn(Cc3ccccc3Cl)c3ccccc23)no1 [2-[1-[(2-chlorophenyl)methyl]indol-3-yl]sulfonyl-N-(5-methyl-1,2-oxazol-3-yl)acetamide] | 5.00
2 | Cc1cc(NC(=O)CS(=O)(=O)c2cn(Cc3cccc(Cl)c3F)c3ccccc23)no1 | 5.29
3 | Cc1cc(NC(=O)CS(=O)(=O)c2cn(Cc3cccc(-c4ccn(C)n4)c3)c3ccccc23)no1 [VU0402606-1] | 5.49
4 | Cc1cc(NC(=O)CS(=O)(=O)c2cn(Cc3cccc(F)c3)c3ccccc23)no1 [2-[[1-[(3-fluorophenyl)methyl]-3-indolyl]sulfonyl]-N-(5-methyl-3-isoxazolyl)acetamide] | 5.28
5 | Cc1cc(NC(=O)CS(=O)(=O)c2cn(Cc3cccc(-c4cc[nH]n4)c3F)c3ccccc23)no1 | 5.36
6 | COc1cccc(Cn2cc(S(=O)(=O)CC(=O)Nc3cc(C)on3)c3ccccc32)c1 [VU0366971-1] | 5.18
7 | Cc1cc(NC(=O)CS(=O)(=O)c2cn(Cc3ccc(F)nc3)c3ccccc23)no1 [VU0404018] | 5.00
8 | Cc1cc(NC(=O)CS(=O)(=O)c2cn(Cc3cc(Br)ccc3F)c3ccccc23)no1 [2-[[1-[(5-bromo-2-fluorophenyl)methyl]-3-indolyl]sulfonyl]-N-(5-methyl-3-isoxazolyl)acetamide] | 5.86
9 | Cc1cc(NC(=O)CS(=O)(=O)c2cn(Cc3cccc(Cl)c3)c3ccccc23)no1 [VU0366968-1] | 5.24
10 | Cc1cc(NC(=O)CS(=O)(=O)c2cn(Cc3cccc(-c4cn[nH]c4)c3)c3ccccc23)no1 | 5.66
11 | Cc1cc(NC(=O)CS(=O)(=O)c2cn(Cc3cccc(-c4cn[nH]c4)c3)c3cc(F)cc(F)c23)no1 [VU0405645-1] | 5.73
12 | Cc1cc(NC(=O)CS(=O)(=O)c2cn(Cc3cc(-c4cc[nH]n4)ccc3F)c3ccccc23)no1 [2-[[1-[[2-fluoro-5-(1H-pyrazol-5-yl)phenyl]methyl]-3-indolyl]sulfonyl]-N-(5-methyl-3-isoxazolyl)acetamide] | 5.51
13 | Cc1cc(NC(=O)CS(=O)(=O)c2cn(Cc3cccc(Br)c3)c3cc(F)cc(F)c23)no1 [2-[1-[(3-bromophenyl)methyl]-4,6-bis(fluoranyl)indol-3-yl]sulfonyl-N-(5-methyl-1,2-oxazol-3-yl)ethanamide] | 5.27
14 | Cc1cc(NC(=O)CS(=O)(=O)c2cn(Cc3cccc(Br)c3)c3ccccc23)no1 [2-[[1-[(3-bromophenyl)methyl]-3-indolyl]sulfonyl]-N-(5-methyl-3-isoxazolyl)acetamide] | 5.42

same assay, conditions: inactive by the depositor's call

Row | SMILES | pEC50
15 | Cc1cc(NC(=O)CS(=O)(=O)c2cn(Cc3cccc(-c4ccc(Cl)nc4)c3)c3ccccc23)no1 | 4.52
